Laboratory results: the supplement of paper PMC10627819

Columns and labels:
Experiment in all cases: Bliss interaction score (quartile over a dose matrix) (fitness difference); higher = more antagonism (negative = synergy)
B. subtilis 168 = tested on: B. subtilis 168
How it was run: (§1)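 Quartiles of the Bliss score were taken over technical, biological and donor/recipient replicates. That score is observed fitness minus the product of the single-drug fitness values, which were inferred from combination data. Fitness itself is OD595 at entry into stationary phase divided by the plate's robust no-drug mean, with a cap at 1.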

S. pneumoniae D39V = tested on: S. pneumoniae D39V
How it was run: as §1

S. aureus Newman = tested on: S. aureus Newman
How it was run: as §1

S. aureus DSM 20231 = tested on: S. aureus DSM 20231
How it was run: as §1
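Further: first quartile when negative (synergy) and third quartile when positive (antagonism).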

Compound | Bliss interaction score (B. subtilis 168) | Bliss interaction score (S. pneumoniae D39V) | Bliss interaction score (S. aureus Newman) | Bliss interaction score (S. aureus DSM 20231)
N#CC(C#N)=NNc1cccc(Cl)c1 [CCCP] + C[C@H]1COc2c(N3CCN(C)CC3)c(F)cc3c(=O)c(C(=O)O)cn1c23 [Levofloxacin] | 0.0457 | 0.0909 | 0.0426 | -0.0231
CO/N=C(\C(=O)N[C@@H]1C(=O)N2C(C(=O)O)=C(COC(C)=O)CS[C@H]12)c1csc(N)n1 [Cefotaxime] + CC[C@H]1OC(=O)[C@H](C)[C@@H](O[C@H]2C[C@@](C)(OC)[C@@H](O)[C@H](C)O2)[C@H](C)[C@@H](O[C@@H]2O[C@H](C)C[C@H](N(C)C)[C@H]2O)[C@](C)(OC)C[C@@H](C)C(=O)[C@H](C)[C@@H](O)[C@]1(C)O [Clarithromycin] | 0.0567 | 0.0611 | -0.0626 | 0.0514
CC(=O)Oc1ccccc1C(=O)O [Acetylsalicylicacid] + O=C1CN(/N=C/c2ccc([N+](=O)[O-])o2)C(=O)N1 [Nitrofurantoin] | -0.202 | 0.0904 | -0.0905 | -0.0978
COc1cccc2c1C(=O)c1c(O)c3c(c(O)c1C2=O)C[C@@](O)(C(=O)CO)C[C@@H]3O[C@H]1C[C@H](N)[C@H](O)[C@H](C)O1 [Doxorubicin] + CC[C@H]1OC(=O)[C@H](C)C(=O)[C@H](C)[C@@H](O[C@@H]2O[C@H](C)C[C@H](N(C)C)[C@H]2O)[C@](C)(OC)C[C@@H](C)C(=O)[C@H](C)[C@H]2N(CCCCn3cnc(-c4cccnc4)c3)C(=O)O[C@]12C [Telithromycin] | 0.0872 | -0.0361 | 0.0489 | -0.0292
COc1cccc2c1C(=O)c1c(O)c3c(c(O)c1C2=O)C[C@@](O)(C(=O)CO)C[C@@H]3O[C@H]1C[C@H](N)[C@H](O)[C@H](C)O1 [Doxorubicin] + CC(=O)O[C@H]1C[C@@]2(C)[C@@H](C[C@@H](O)[C@H]3[C@@]4(C)CC[C@@H](O)[C@@H](C)[C@@H]4CC[C@@]32C)/C1=C(\CCC=C(C)C)C(=O)O [Fusidic acid] | 0.0613 | -0.0805 | 0.0367 | -0.0285
C[C@H]1c2cccc(O)c2C(=O)C2=C(O)[C@]3(O)C(=O)C(C(N)=O)=C(O)[C@@H](N(C)C)[C@@H]3[C@@H](O)[C@@H]21 [Doxycycline] + CC[C@H]1OC(=O)[C@H](C)C(=O)[C@H](C)[C@@H](O[C@@H]2O[C@H](C)C[C@H](N(C)C)[C@H]2O)[C@](C)(OC)C[C@@H](C)C(=O)[C@H](C)[C@H]2N(CCCCn3cnc(-c4cccnc4)c3)C(=O)O[C@]12C [Telithromycin] | -0.326 | -0.261 | -0.0224 | -0.0892
N#CC(C#N)=NNc1cccc(Cl)c1 [CCCP] + CO[C@H]1/C=C/O[C@@]2(C)Oc3c(C)c(O)c4c(O)c(c(/C=N/N5CCN(C)CC5)c(O)c4c3C2=O)NC(=O)/C(C)=C\C=C\[C@H](C)[C@H](O)[C@@H](C)[C@@H](O)[C@@H](C)[C@H](OC(C)=O)[C@@H]1C [Rifampicin] | -0.0783 | 0.0879 | 0.0395 | 0.0329
CO/N=C(\C(=O)N[C@@H]1C(=O)N2C(C(=O)O)=C(COC(N)=O)CS[C@H]12)c1ccco1 [Cefuroxime] + Clc1ccc(COC(Cn2ccnc2)c2ccc(Cl)cc2Cl)c(Cl)c1 [Miconazole] | 0.0653 | 0.0717 | 0.025 | 0.112
CN(C)[C@@H]1C(O)=C(C(N)=O)C(=O)[C@@]2(O)C(O)=C3C(=O)c4c(O)ccc(Cl)c4[C@@](C)(O)[C@H]3C[C@@H]12 [Clortetracycline] + COc1cc(Cc2cnc(N)nc2N)cc(OC)c1OC [Trimethoprim] | 0.135 | -0.0376 | 0.102 | 0.0736
CN(C)[C@@H]1C(O)=C(C(N)=O)C(=O)[C@@]2(O)C(O)=C3C(=O)c4c(O)ccc(Cl)c4[C@@](C)(O)[C@H]3C[C@@H]12 [Clortetracycline] + CC(=O)NC[C@H]1CN(c2ccc(N3CCOCC3)c(F)c2)C(=O)O1 [Linezolid] | -0.259 | -0.0813 | -0.0457 | -0.0326
CN(C)c1cc(NC(=O)CNC(C)(C)C)c(O)c2c1C[C@H]1C[C@H]3[C@H](N(C)C)C(O)=C(C(N)=O)C(=O)[C@@]3(O)C(O)=C1C2=O [Tigecycline] + Oc1cc(Cl)ccc1Oc1ccc(Cl)cc1Cl [Triclosan] | 0.0719 | 0.0471 | 0.0252 | 0.101
CO/N=C(\C(=O)N[C@@H]1C(=O)N2C(C(=O)O)=C(COC(N)=O)CS[C@H]12)c1ccco1 [Cefuroxime] + N[C@@H]1CONC1=O [CycloserineD] | -0.0514 | 0.0839 | -0.0647 | 0.114
CC(=O)Oc1ccccc1C(=O)O [Acetylsalicylicacid] + C[C@H]1COc2c(N3CCN(C)CC3)c(F)cc3c(=O)c(C(=O)O)cn1c23 [Levofloxacin] | 0.12 | 0.142 | 0.12 | 0.0854
N#CC(C#N)=NNc1cccc(Cl)c1 [CCCP] + COc1c(N2C[C@@H]3CCCN[C@@H]3C2)c(F)cc2c(=O)c(C(=O)O)cn(C3CC3)c12 [Moxifloxacin] | 0.0233 | 0.0433 | -0.0686 | -0.0373
